Reference: patent US10815276B2, “Cell penetrating peptides and methods of making and using thereof” (Entrada Therapeutics, Inc., priority 2014, dated 2020)
Starred links: 1 amine or outer side, 2 acyl side, 3 side chain; linkers in the order of their positions; H or OH if unused. Positions of bridges follow the written chain, without caps; N, C: chain ends. Non-standard residues stand in square brackets, D forms with d. Residues, ends and D or L forms follow the SMILES beside them. Trimesoyl = O=C(c1cc(C(=O)[*:2])cc(C(=O)[*:3])c1)[*:1]; d(pT) = C[C@H](OP(=O)(O)O)[C@@H](N)C(=O)O; 2Nal = N[C@@H](Cc1ccc2ccccc2c1)C(=O)O; Pip = O=C(O)[C@@H]1CCCCN1; Dap = NC[C@H](N)C(=O)O; Sar = CNCC(=O)O

Columns and labels:
Pin1 [1] = target: T1, Pin1 (Homo sapiens, UniProt Q13526, S16A/Y23A); assay: Fluorescence anisotropy binding to Pin1
T1 construct: The full-length human S16A/Y23A mutant Pin1 was expressed and purified from E. coli; made in house
T1 sequence (Q13526 whole entry S16A/Y23A): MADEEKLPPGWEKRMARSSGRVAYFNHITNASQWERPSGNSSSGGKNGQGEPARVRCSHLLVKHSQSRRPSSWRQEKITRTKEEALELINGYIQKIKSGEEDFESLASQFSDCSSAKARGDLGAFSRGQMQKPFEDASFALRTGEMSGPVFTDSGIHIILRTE
Protocol: The gene coding for the catalytic domain of PTP1B (amino acids 1-321) was amplified by the polymerase chain reaction using PTP1B cDNA as template and oligonucleotides 5′-[…]-3′ and 5′-[…]-3′ as primers. […] Expression and purification of the ybbR-tagged PTP1B were carried out as previously described (Ren, L et al. Biochemistry 2011, 50, 2339-2356). […] The reaction mixture was passed through a G-25 fast-desalting column equilibrated in 30 mM HEPES, pH 7.4, 150 mM NaCl to remove any free dye molecules. The full-length human S16A/Y23A mutant Pin1 was expressed and purified from E. coli as previously described (Liu, T et al. J. Med. Chem. 2010, 53, 2494-2501).
FA experiments were carried out by incubating 100 nM FITC-labeled peptide with varying concentrations of protein in 20 mM HEPES (pH 7.4), 150 mM NaCl, 2 mM magnesium acetate, and 0.1% bovine serum albumin (BSA) for 2 h at room temperature. The FA values were measured on a Molecular Devices Spectramax M5 plate reader, with excitation and emission wavelengths at 485 and 525 nm, respectively. Equilibrium dissociation constants (KD) were determined by plotting the FA values as a function of protein concentration and fitting the curve to the following equation:
(§1) [formula] where Y is the FA value at a given protein concentration x, L is the peptide concentration, Qb/Qf is the correction factor for fluorophore-protein interaction, Amax is the maximum FA value when all of the peptides are bound to protein, while Amin is the minimum FA value when all of the peptides are free. FA competition assay was performed by incubating 100 nM FITC-labeled Pin1 inhibitor 5 with 1 μM Pin1, followed by the addition of 0-5 μM unlabeled inhibitor. The FA values were measured similarly on a pate reader. IC50 values were obtained by plotting the FA values against the competitor concentration and curve fitting using the four-parameter dose-response inhibition equation (Prism 6, GraphPad).

Pin1 [2] = target: T1, Pin1; assay: FA competition with FITC-labeled inhibitor 5; assay type: binding; settings: 0.1 μM labeled inhibitor 5, 1 μM Pin1
Protocol: FIGS. 32A and 32B display the competition for binding to Pin1 by inhibitors 5 and 7. Each reaction contained 0.1 μM FITC-labeled inhibitor 5, 1 μM Pin1, and 0-5 μM unlabeled inhibitor 5 […] or inhibitor 7 (FIG. 32B) and the FA value was measured and plotted against the competitor concentration.
as §1

HeLa cells [3] = assay: MTT proliferation assay with Pin1 inhibitors; assay type: cell-based, human; settings: 3-day treatment at 20 μM
Protocol: HeLa cells (100 μL/each well, 5×10^4 cells/mL) were seeded in a 96-well culture plate and allowed to grow overnight in DMEM supplemented with 10% FBS. […] After that, 10 μL of a MTT stock solution (5 mg/mL) was added into each well. The plate was incubated at 37° C. for 4 h and 100 μL of SDS-HCl solubilizing solution was added into each well, followed by thorough mixing. The plate was incubated at 37° C. overnight and the absorbance of the formazan product was measured at 570 nm on a Molecular Devices Spectramax M5 plate reader. Each experiment was performed in triplicates and the cells untreated with peptide were used as control.

HeLa cells [4] = assay: Cellular uptake by flow cytometry; assay type: cell-based, human; settings: 5 μM FITC-labeled peptide, 2 h
Protocol: The cellular uptake efficiency of peptide 37, peptide 1, and a previously reported membrane-impermeable monocyclic Pin1 inhibitor (Table 18, peptide 46) was assessed by incubating HeLa cells with the FITC-labeled peptides (5 μM) for 2 h and quantifying the total intracellular fluorescence by flow cytometry analysis. […] By contrast, cells treated with peptides 1 and 37 gave MFI values of 2562 and 8792, respectively. Thus, peptide 37 is internalized by HeLa cells ˜4-fold more efficiently than peptide 1. Presumably, the negative charged phosphate group of peptide 1 interacted electrostatically with the positively charged CPP motif and reduced the cellular uptake efficiency of the latter.

HeLa cells [5] = assay: Western blot of PML protein level; assay type: cell-based, human; settings: 5 μM
Protocol: FIGS. 38A, 38B, 38C, and 38D display cellular activity of peptide 37. (FIG. 38A) Cellular uptake of peptides 1, 37, and 46 (5 μM) by HeLa cells as analyzed by flow cytometry. MFI, mean fluorescence intensity; none, untreated cells (no peptide). (FIG. 38B) Anti-proliferative effect of peptides 37, 46, and 47 on HeLa cells as measured by MTT assay. (FIG. 38C) Western blots showing the effect of peptides 1, 37 and 47 on the protein level of PML in HeLa cells. β-Actin was used as loading control. (FIG. 38D) Quantification of western blot results from (FIG. 38C). Data reported were after background subtraction and represent the mean±SD from 3 independent experiments.
Finally, to ascertain that Pin1 is the molecular target of peptide 37 in vivo, the intracellular protein level of a well-established Pin1 substrate, […] (PML), was examined by western blot analysis. Pin1 negatively regulates the PML level in a phosphorylation-dependent manner and inhibition of Pin1 activity is expected to stabilize PML and increase its intracellular level. […] The effect was already significant at 0.2 μM inhibitor (1.8-fold increase in the PML level) and plateaued at ˜1 μM (3.3-fold increase). Again, bicyclic peptide 47 had no effect under the same conditions, while peptide 1 (the positive control, at 5 μM) increased the PML level by 3.1-fold.

HeLa cells [6] = settings: read-out: IC50 of HeLa cell growth; MTT
From the text: The effect of peptide 37 on the growth of HeLa cells was examined by using the MTT cell viability assay.

[7] = tested on: mouse ventricular cardiac myocytes; assay: Live-cell confocal microscopy of cardiomyocytes; assay type: cell-based; settings: 5 μM peptide or 6 μM conjugate, 3 h
Protocol: FIGS. 35A, 35B, 35C, and 35D display live cell confocal images of mouse ventricular cardiac myocytes after treatment for 3 h with 5 μM c(FΦRRRRQ)-K(FITC) (FIG. 35A) and c(fΦRrRrQ)-K(FITC) (FIG. 35B).
The disclosed cyclic CPPs are very effective in delivering proteins into cardiomyocytes. Fluorescein isothiocyanate (FITC)-labeled cyclic CPPs [c(FΦRRRRQ)-K(FITC)-NH2 and c(fΦRrRrQ)-K(FITC)-NH2] were synthesized and their internalization into mouse ventricular cardiac myocytes was tested by treating the cells with 5 μM FITC-labeled peptide for 3 h. After washing away the extracellular peptides, the internalization of CPPs was examined by fluorescent live-cell confocal microscopy. […] Whether the cyclic CPPs are capable of transporting full-length proteins into cardiac muscle cells was tested. Calmodulin (with an engineered Thr5Cys), a multifunctional calcium-binding messenger protein, was conjugated to c(FΦRRRRQ)-C-NH2 at the Cys residue near N-terminus through a disulfide bond. The disulfide exchange reaction is highly specific, efficient, and reversible. Further, upon entering the cytosol of cells, the disulfide linkage is expected to be reduced to release the native protein (FIG. 35c). The CPP-protein conjugate was chemically labeled on amino-groups with cyanine3, which permits visualization of the internalized calmodulin. […]

Compound	Improvement of inhibitor potency vs peptide 6 (Pin1 [1]) [fold]	Kd (Pin1 [1]; FITC-labeled peptide, FA analysis) [nM]	Competition with FITC-labeled inhibitor 5 for binding to Pin1 (Pin1 [2])	Inhibition of cell growth (HeLa cells [3]) [%]	Mean fluorescence intensity (MFI) (HeLa cells [4])	Increase in the PML level (HeLa cells [5]) [fold]	IC50 (HeLa cells [6]) [nM]	Internalization into cardiac muscle cells (confocal) [7]
C[C@@H]1NC(=O)[C@H](CCCNC(=N)N)NC(=O)[C@H](Cc2ccc3ccccc3c2)NC(=O)[C@@H]2CCCCN2C(=O)[C@@H]([C@H](C)OP(=O)(O)O)NC(=O)CN(C)C(=O)[C@@H](C)NC(=O)c2cc3cc(c2)C(=O)NC[C@H](NC(=O)[C@@H](C)NC1=O)C(=O)N[C@@H](Cc1ccccc1)C(=O)N[C@@H](Cc1ccc2ccccc2c1)C(=O)N[C@@H](CCCNC(=N)N)C(=O)N[C@@H](CCCNC(=N)N)C(=O)N[C@@H](CCCNC(=N)N)C(=O)N[C@@H](CCCNC(=N)N)C(=O)N[C@H](C(=O)N[C@@H](CCCCN)C(N)=O)CNC3=O [Peptide 1, bicyclo[Tm-(D-Ala-Sar-D-pThr-Pip-Nal-Arg-Ala-D-Ala)-Dap-(Phe-Nal-Arg-Arg-Arg-Arg-Dap)]-Lys] ([dA][Sar][d(pT)][Pip][2Nal]RA[dA][Dap]F[2Nal]RRRR[Dap]K-NH2; linker N-9-16 via Trimesoyl)	~2	72	competed	45	2562	3.1	1800	–
c(fΦRrRrQ)-K(FITC)-NH2	–	–	–	–	–	–	–	efficient internalization
